Experimental data: US10520509B2 (Washington State University, priority 2016, dated 2019)

Experiments:
[1] = tested on: HeLa cells; experiment: Cell viability assay (CCK-8) of DDP probe; assay type: cell-based; settings: 10-100 μM, 6 h
Method: (§1) In another embodiment the DDP probes has been designed to visuals exogenous sulfur species in a living system. […] Additionally, the selectivity of the probes can be seen in FIG. 10. […] The probe (20 μm) was applied to the cells for 30 minutes, after which the extracellular probe was washed off and only a weak fluorescence was observed.
HeLa cells were cultured in DMEM high glucose medium supplemented with 10% fetal bovine serum (FBS) at 37° C. under an atmosphere of 5% CO2 and 95% air. The cells were then inoculated in 96-well plates and cultured overnight. DDP-1 in FBS-free medium were administered and cultured for 6 h. The cell viability was measured by cell counter kit (CCK)-8. The absorbance at 450 nm was measured with a microplate reader. Optical density (OD) of the 9 wells in the indicated groups was used to calculate percentage of cell viability according to the formula below: Percentage of cell viability=OD treatment group/OD control group×100% Cell Culture and Fluorescence Imaging

[2] = tested on: HeLa cells; experiment: Fluorescence imaging of H2S and H2Sn with DDP probe in cells; assay type: cell-based; settings: probe 20 μm 30 min
Method: as §1
The cells were grown on glass-bottom culture dishes (Corning Inc.) in DMEM supplemented with 10% (v/v) FBS, penicillin (100 U/mL) and streptomycin (100 μg/mL) at 37° C. under a humidified atmosphere containing 5% CO2. Before use, the adherent cells were washed one time with FBS-free DMEM. […] After removal of excess probe and washed with PBS (pH 7.4), the cells were incubated with 30 μM Na2S2 or 30 μM Na2S4 at room temperature for 20 min in PBS buffer (pH 7.4, containing 100 μM CTAB). Cell imaging was carried out after removal of the culture solution. For images of CSE-overexpressed COS7 cells.

In the case of [N-]=[N+]=Nc1ccc2c(CC(=O)N3CCN(c4ccc5c(c4)Oc4cc(OC(=O)c6ccccc6SC(=O)c6ccccc6)ccc4C54OC(=O)c5ccccc54)CC3)cc(=O)oc2c1 (stereo not drawn) [DDP-1], the “cytotoxicity (cell viability)” value [1] is reported as “low cytotoxicity”, the “fluorescence in cells after Na2S treatment” value ([2]; Na2S 100 μm, blue and green channel) is reported as “apparent fluorescence enhancement” and the “fluorescence in cells after Na2S2 or in situ generated H2Sn” value ([2]; blue vs green channel) is reported as “blue channel decreased with a coinstantaneous increase in the green channel”.
